US10604554B2, “Double-acylated GLP-1 derivatives” (Novo Nordisk A/S, priority 2012, dated 2020)

How the values were obtained:
human GLP-1 receptor [1] = target: T1, human GLP-1 receptor (Homo sapiens, UniProt P43220); experiment: In vitro potency (CRE luciferase; whole cells); format: cell-based; parameters: EC50/pM (ratio 1% HSA/0% HSA): unit not given here; conditions: for EC50: BHK cells
T1 construct: expressed in transfected cells; host or cells: BHK cells, clone FCW467-12A/KZ10-1 (parent line BHKTS13), further transfected with CRE luciferase
T1 sequence (P43220 24-463): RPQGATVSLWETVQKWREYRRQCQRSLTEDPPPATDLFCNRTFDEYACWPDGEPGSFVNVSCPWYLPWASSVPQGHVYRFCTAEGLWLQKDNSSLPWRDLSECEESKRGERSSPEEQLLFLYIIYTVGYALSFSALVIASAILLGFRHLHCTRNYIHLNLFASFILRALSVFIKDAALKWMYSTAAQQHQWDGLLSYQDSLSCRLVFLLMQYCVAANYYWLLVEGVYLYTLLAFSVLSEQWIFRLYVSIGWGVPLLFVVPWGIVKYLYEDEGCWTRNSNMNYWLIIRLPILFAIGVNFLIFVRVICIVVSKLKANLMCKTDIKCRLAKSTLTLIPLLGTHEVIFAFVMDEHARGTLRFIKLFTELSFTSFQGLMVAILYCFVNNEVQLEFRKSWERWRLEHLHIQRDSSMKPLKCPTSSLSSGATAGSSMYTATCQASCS
Method: The purpose of this example is to test the activity, or potency, of the GLP-1 derivatives in vitro. The in vitro potency is the measure of human GLP-1 receptor activation in a whole cell assay.
In vitro potency was determined by measuring the response of human GLP-1 receptor in a reporter gene assay. The assay was performed in a stably transfected BHK cell line that expresses the human GLP-1 receptor and contains the DNA for the cAMP response element (CRE) coupled to a promoter and the gene for firefly luciferase (CRE luciferase). When the human GLP-1 receptor was activated it results in the production of cAMP, which in turn results in the luciferase protein being expressed. When assay incubation was completed the luciferase substrate (luciferin) was added and the enzyme converts luciferin to oxyluciferin and produces bioluminescence. The luminescence was measured and was the readout for the assay.
An increase of the in vitro potency, EC50 value, in the presence of serum albumin indicates an affinity to serum albumin and represents a method to predict a protracted pharmacokinetic profile of the test substance in animal models.
The cells were cultured at 5% CO2 in cell culture medium. They were aliquoted and stored in liquid nitrogen. Before each assay an aliquot was taken up and washed twice in PBS before being suspended at the desired concentration in the assay specific buffer.
The following chemicals were used in the assay: Pluronic F-68 (10%) (Gibco 2404), human serum albumin (HSA) (Sigma A9511), ovalbumin (Sigma A5503), DMEM w/o phenol red (Gibco 11880-028), 1 M Hepes (Gibco 15630), Glutamax 100× (Gibco 35050) and steadylite plus (PerkinElmer 6016757).
1) Cell stocks were thawed in a 37° C. water bath.
2) Cells were washed three times in PBS.
3) The cells were counted and adjusted to 5×10^3 cells/50 μl (1×10^5 cells/ml) in assay medium. A 50 μl aliquot of cells was transferred to each well in the assay plate.
4) Stocks of the test compounds and reference compounds were diluted to a concentration of 0.2 μM in 0% assay buffer for the 0% HSA CRE luciferase assay and 1% assay buffer for the HSA CRE luciferase assay. […] 5) A 50 μl aliquot of compound or blank was transferred in triplicate from the dilution plate to the assay plate. […] 7) The assay plate was removed from the incubator and allowed to stand at room temperature for 15 min. 8) A 100 μl aliquot of steadylite plus reagent was added to each well of the assay plate (reagent was light sensitive). 9) Each assay plate was covered with aluminum foil to protect it from light and shaken for 30 min at room temperature. 10) Each assay plate was read in a Packard TopCount NXT instrument. Calculations and Results
The data from the TopCount instrument were transferred to GraphPad Prism software. The software averages the values for each replicate and performs a non-linear regression.

human GLP-1 receptor [2] = target: T1, human GLP-1 receptor; experiment: GLP-1 receptor binding (SPA, displacement of 125I-GLP-1)
Method: The purpose of this experiment is to investigate the binding to the GLP-1 receptor of the GLP-1 derivatives, and how the binding is potentially influenced by the presence of albumin. This is done in an in vitro experiment as described below.
In order to test the binding of the derivatives to albumin, the assay was performed with a low concentration of albumin (0.001%—corresponding to the residual amount thereof in the tracer), as well as with a high concentration of albumin (2.0% added). A shift in the binding affinity, IC50, is an indication that the peptide in question binds to albumin, and thereby a prediction of a potential protracted pharmacokinetic profile of the peptide in question in animal models.
Species (in vitro): Hamster
Biological End Point: Receptor Binding
A stable transfected cell line and a high expressing clone were selected for screening. The cells were grown at 5% CO2 in DMEM, 10% FCS, 1% Pen/Strep (Penicillin/Streptomycin) and 1.0 mg/ml of the selection marker G418.
The cells (approx. 80% confluence) were washed twice in PBS and harvested with Versene (aqueous solution of the tetrasodium salt of ethylenediaminetetraacetic acid), following which they were separated by centrifugation at 1000 rpm for 5 min. The cells/cell pellet must be kept on ice to the extent possible in the subsequent steps. The cell pellet was homogenised with Ultrathurrax for 20-30 seconds in a suitable amount of Buffer 1 (depending on the amount of cells, but e.g. 10 ml). The homogenate was centrifuged at 20000 rpm for 15 minutes. The pellet was resuspended (homogenised) in 10 ml Buffer 2 and re-centrifuged. This step was repeated once more. The resulting pellet was resuspended in Buffer 2, and the protein concentration was determined. The membranes were stored at minus 80° C.
Buffer 1:20 mM Na-HEPES+10 mM EDTA, pH 7.4
Buffer 2:20 mM Na-HEPES+0.1 mM EDTA, pH 7.4
Test compounds, membranes, SPA-particles and [^125I]-GLP-1(7-36)NH2 were diluted in assay buffer. 50 ul (micro liter) HSA (“high albumin” experiment containing 2% HSA), or buffer (“low albumin” experiment containing 0.001% HSA) was added to Optiplate, and 25 ul of test compounds were added. 5-10 ug membrane protein/sample was added (50 ul) corresponding to 0.1-0.2 mg protein/ml (to be preferably optimised for each membrane preparation). SPA-particles (Wheatgerm agglutinin SPA beads, Perkin Elmer, # RPNQ0001) were added in an amount of 0.5 mg/well (50 ul). The incubation was started with [^125I]-GLP-1]-(7-36)NH2 (final concentration 0.06 nM corresponding to 49.880 DPM, 25 ul). The plates were sealed with PlateSealer and incubated for 120 minutes at 30° C. while shaking. The plates were centrifuged (1500 rpm, 10 min) and counted in Topcounter.

[3] = In vitro potency (CRE luciferase) EC50 (1% HSA), 1% HSA
[4] = Receptor binding affinity IC50 (high HSA), 2.0% HSA (high albumin)

Row | EC50/pM (ratio 1% HSA/0% HSA) (human GLP-1 receptor [1]; ratio of EC50 at 1% HSA to EC50 at 0% HSA) | Compound | EC50 (human GLP-1 receptor [1]; [3]) [pM] | EC50 (human GLP-1 receptor [1]; In vitro potency (CRE luciferase) EC50 (0% HSA), 0% HSA) [pM] | IC50 (human GLP-1 receptor [2]; [4]) [pM] | IC50 (human GLP-1 receptor [2]; Receptor binding affinity IC50 (low HSA), 0.001% HSA (low albumin)) [pM]
1 | 10.3 | CC[C@H](C)[C@H](NC(=O)[C@H](Cc1ccccc1)NC(=O)[C@H](CCC(=O)O)NC(=O)[C@H](CCCCNC(=O)[C@@H](N)CCCCNC(=O)[C@@H](N)CCCCNC(=O)CC[C@H](NC(=O)CCCCCCCCCCCCC(=O)O)C(=O)O)NC(=O)[C@H](C)NC(=O)[C@H](C)NC(=O)[C@H](CCC(N)=O)NC(=O)CNC(=O)[C@H](CCC(=O)O)NC(=O)[C@H](CC(C)C)NC(=O)[C@H](Cc1ccc(O)cc1)NC(=O)[C@H](CO)NC(=O)[C@H](CO)NC(=O)[C@@H](NC(=O)[C@H](CC(=O)O)NC(=O)[C@H](CO)NC(=O)[C@@H](NC(=O)[C@H](Cc1ccccc1)NC(=O)[C@@H](NC(=O)CNC(=O)[C@H](CCC(=O)O)NC(=O)C(C)(C)NC(=O)[C@@H](N)Cc1c[nH]cn1)[C@@H](C)O)[C@@H](C)O)C(C)C)C(=O)N[C@@H](C)C(=O)N[C@@H](Cc1c[nH]c2ccccc12)C(=O)N[C@@H](CC(C)C)C(=O)N[C@H](C(=O)N[C@@H](Cc1c[nH]cn1)C(=O)NCC(=O)N[C@@H](CCCNC(=N)N)C(=O)N[C@@H](CCCCNC(=O)[C@@H](N)CCCCNC(=O)[C@@H](N)CCCCNC(=O)CC[C@H](NC(=O)CCCCCCCCCCCCC(=O)O)C(=O)O)C(=O)O)C(C)C [Example 3, N^ε26-[(2S)-2-amino-6-[[(2S)-2-amino-6-[[(4S)-4-carboxy-4-(13-carboxytridecanoylamino)butanoyl]amino]hexanoyl]amino]hexanoyl], N^ε37-[(2S)-2-amino-6-[[(2S)-2-amino-6-[[(4S)-4-carboxy-4-(13-carboxytridecanoylamino)butanoyl]amino]hexanoyl]amino]hexanoyl]-[Aib^8,His^34,Lys^37]-GLP-1-(7-37)-peptide] | 80 |  |  | 
2 |  | CC[C@H](C)[C@H](NC(=O)[C@H](Cc1ccccc1)NC(=O)[C@H](CCC(=O)O)NC(=O)[C@H](CCCCNC(=O)[C@@H](N)CCCCNC(=O)CC[C@H](NC(=O)CC[C@H](NC(=O)CC[C@H](NC(=O)CCCCCCCCCOc1ccc(C(=O)O)cc1)C(=O)O)C(=O)O)C(=O)O)NC(=O)[C@H](C)NC(=O)[C@H](C)NC(=O)[C@H](CCC(N)=O)NC(=O)CNC(=O)[C@H](CCC(=O)O)NC(=O)[C@H](CC(C)C)NC(=O)[C@H](Cc1ccc(O)cc1)NC(=O)[C@H](CO)NC(=O)[C@H](CO)NC(=O)[C@@H](NC(=O)[C@H](CC(=O)O)NC(=O)[C@H](CO)NC(=O)[C@@H](NC(=O)[C@H](Cc1ccccc1)NC(=O)[C@@H](NC(=O)CNC(=O)[C@H](CCC(=O)O)NC(=O)C(C)(C)NC(=O)[C@@H](N)Cc1c[nH]cn1)[C@@H](C)O)[C@@H](C)O)C(C)C)C(=O)N[C@@H](C)C(=O)N[C@@H](Cc1c[nH]c2ccccc12)C(=O)N[C@@H](CC(C)C)C(=O)N[C@H](C(=O)N[C@@H](CCCNC(=N)N)C(=O)NCC(=O)N[C@@H](CCCNC(=N)N)C(=O)N[C@@H](CCCCNC(=O)[C@@H](N)CCCCNC(=O)CC[C@H](NC(=O)CC[C@H](NC(=O)CC[C@H](NC(=O)CCCCCCCCCOc1ccc(C(=O)O)cc1)C(=O)O)C(=O)O)C(=O)O)C(=O)O)C(C)C [Example 8, N^ε26-[(2S)-2-amino-6-[[(4S)-4-carboxy-4-[[(4S)-4-carboxy-4-[[(4S)-4-carboxy-4-[10-(4-carboxyphenoxy)decanoylamino]butanoyl]amino]butanoyl]amino]butanoyl]amino]hexanoyl], N^ε37-[(2S)-2-amino-6-[[(4S)-4-carboxy-4-[[(4S)-4-carboxy-4-[[(4S)-4-carboxy-4-[10-(4-carboxyphenoxy)decanoylamino]butanoyl]amino]butanoyl]amino]butanoyl]amino]hexanoyl]-[Aib^8,Arg^34,Lys^37]-GLP-1-(7-37)-peptide] | 45 | 2.6 | 269000 | 680
3 |  | CC[C@H](C)[C@H](NC(=O)[C@H](Cc1ccccc1)NC(=O)[C@H](CCC(=O)O)NC(=O)[C@H](CCCCNC(=O)[C@@H](N)CCCCNC(=O)[C@H](CO)NC(=O)CNC(=O)[C@H](CO)NC(=O)CC[C@H](NC(=O)CCCCCCCCCCCOc1ccc(C(=O)O)cc1)C(=O)O)NC(=O)[C@H](C)NC(=O)[C@H](C)NC(=O)[C@H](CCC(N)=O)NC(=O)CNC(=O)[C@H](CCC(=O)O)NC(=O)[C@H](CC(C)C)NC(=O)[C@H](Cc1ccc(O)cc1)NC(=O)[C@H](CO)NC(=O)[C@H](CO)NC(=O)[C@@H](NC(=O)[C@H](CC(=O)O)NC(=O)[C@H](CO)NC(=O)[C@@H](NC(=O)[C@H](Cc1ccccc1)NC(=O)[C@@H](NC(=O)CNC(=O)[C@H](CCC(=O)O)NC(=O)C(C)(C)NC(=O)CCc1c[nH]cn1)[C@@H](C)O)[C@@H](C)O)C(C)C)C(=O)N[C@@H](C)C(=O)N[C@@H](Cc1c[nH]c2ccccc12)C(=O)N[C@@H](CC(C)C)C(=O)N[C@H](C(=O)N[C@@H](CCCNC(=N)N)C(=O)NCC(=O)N[C@@H](CCCNC(=N)N)C(=O)N[C@@H](CCCCNC(=O)[C@@H](N)CCCCNC(=O)[C@H](CO)NC(=O)CNC(=O)[C@H](CO)NC(=O)CC[C@H](NC(=O)CCCCCCCCCCCOc1ccc(C(=O)O)cc1)C(=O)O)C(=O)O)C(C)C [Example 25] | 124 |  | 274000 | 
